This note sets out measurements from patent US6221865A, “Inhibitors of protein isoprenyl transferases” (priority 1998, dated 2001).

This assay concerns the target T1, protein farnesyltransferase (Rattus norvegicus, UniProt Q02293+Q04631).
T1 construct: The enzyme is purified according to Reiss, Y., et al., Cell, 62: 81-88 (1990), utilizing steps one through three; from tissue; host or cells: rat brain
Put plainly: Inhibition of farnesyltransferase (scintillation proximity assay, rat brain enzyme, biotin-K Ras B fragment substrate). Format: biochemical. The following applies: for % inhibition of farnesyltransferase at 1 × 10^-5 M: 1 × 10^-5 M (Table 1); for % inhibition of farnesyltransferase at 1 × 10^-8 M: 1 × 10^-8 M (Table 4); for % inhibition of farnesyltransferase at 1 × 10^-6 M / inhibition at 1 µM: 1 × 10^-6 M (Table 2); for inhibition at 1 µM: read-out: % inhibition of farnesyltransferase at 1 × 10^-6 M; for % inhibition of farnesyltransferase at 1 × 10^-7 M / inhibition at 0.1 µM: 1 × 10^-7 M (Table 3); for inhibition at 0.1 µM: read-out: % inhibition of farnesyltransferase at 1 × 10^-7 M. In short, it runs like this:
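Enzyme from rat brain, partly purified (steps one to three), assayed by SPA kit using 0.1 mM final biotin-K Ras B peptide as prenyl acceptor rather than biotin-lamin. Activity given as percent inhibition.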

The inhibition is the relative decrease from the control value, in per cent.

Counter-ions that a name gives are not always drawn.

T1 sequence (Q02293 whole entry, one chain of several): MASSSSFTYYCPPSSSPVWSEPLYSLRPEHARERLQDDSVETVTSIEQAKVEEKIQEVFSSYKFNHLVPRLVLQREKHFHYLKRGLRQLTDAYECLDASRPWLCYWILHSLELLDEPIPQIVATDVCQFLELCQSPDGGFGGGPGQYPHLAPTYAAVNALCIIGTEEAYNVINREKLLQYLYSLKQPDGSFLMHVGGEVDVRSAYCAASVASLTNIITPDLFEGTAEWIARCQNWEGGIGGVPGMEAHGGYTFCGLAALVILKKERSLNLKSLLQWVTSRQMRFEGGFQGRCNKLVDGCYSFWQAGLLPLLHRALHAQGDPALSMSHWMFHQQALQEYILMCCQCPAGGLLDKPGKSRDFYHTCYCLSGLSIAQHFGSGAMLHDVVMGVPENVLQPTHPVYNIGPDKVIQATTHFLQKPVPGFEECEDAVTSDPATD

Turning to `CSCC[C@H](NC(=O)c1ccc(NC(=O)c2cccc(N(C)C)c2)cc1-c1ccccc1)C(=O)O` [Example 752], the “% inhibition of farnesyltransferase at 1 × 10^-5 M” value (shortened to “% inhibition … at 1 × 10^-5 M”) is given as 58%.
Regarding `COc1cc(Cl)ccc1C(=O)Nc1ccc(C(=O)N[C@@H](CCSC)C(=O)O)c(-c2ccccc2)c1` [Example 753], the “% inhibition … at 1 × 10^-5 M” value is reported as 55%.
With `COc1ccc(Br)c(C(=O)Nc2ccc(C(=O)N[C@@H](CCSC)C(=O)O)c(-c3ccccc3)c2)c1` [Example 754], the “% inhibition … at 1 × 10^-5 M” value worked out at 40%.
Consider `COc1cc(I)c(C(=O)Nc2ccc(C(=O)N[C@@H](CCSC)C(=O)O)c(-c3ccccc3)c2)cc1OC` [Example 756], for which the “% inhibition … at 1 × 10^-5 M” value turned out to be 47%.
Same read-out and setting: in the case of `CSCC[C@H](NC(=O)c1ccc(NC(=O)Cc2ccccc2[N+](=O)[O-])cc1-c1ccccc1)C(=O)O` [Example 757] it was 58%.
`CSCC[C@H](NC(=O)c1ccc(CN(CCC2CCCCC2)C(=O)c2ccccc2)cc1-c1ccccc1C)C(=O)O` [Example 762]: the “% inhibition of farnesyltransferase at 1 × 10^-8 M” value (shortened to “% inhibition … at 1 × 10^-8 M”) is reported as 84%.
Consider `CCSC[C@H](CC1CCCCC1)NCc1ccc(C(=O)N[C@@H](CCSC)C(=O)OCOC(=O)C(C)(C)C)c(-c2ccccc2C)c1` [Example 764], for which the “% inhibition of farnesyltransferase at 1 × 10^-6 M” value (shortened to “% inhibition … at 1 × 10^-6 M”) was determined as 88%.
In the case of `CCSC[C@H](CC1CCCCC1)NCc1ccc(C(=O)N(C)[C@@H](CCSC)C(=O)O)c(-c2ccccc2C)c1` [Example 765], the “% inhibition … at 1 × 10^-6 M” value is recorded as 76%.
In the case of `CSCC[C@H](NC(=O)c1ccc(CN[C@H](CSC2CCCCC2)CC2CCCCC2)cc1-c1ccccc1C)C(=O)O` [Example 766], the “% inhibition … at 1 × 10^-8 M” value is recorded as 95%.
For the molecule `CSCC[C@H](NC(=O)c1ccc(CN[C@H](CSc2ccccc2C)CC2CCCCC2)cc1-c1ccccc1C)C(=O)O` [Example 767], the “% inhibition … at 1 × 10^-8 M” value worked out at 97%.
Consider `CSCC[C@H](NC(=O)c1ccc(S(=O)(=O)N(Cc2ccccc2)c2ccccc2)cc1-c1ccccc1C)C(=O)O` [Example 768, N-[4-(N-Benzyl-N-phenylaminosulfonyl)-2-(2-methylphenyl)benzoyl]methionine lithium salt], for which the inhibition at 1 µM was 67%.
In the case of `CSCC[C@H](NC(=O)c1ccc(CN(c2ccccc2)S(=O)(=O)c2ccccc2)cc1-c1ccccc1C)C(=O)O` [Example 769], the “% inhibition of farnesyltransferase at 1 × 10^-7 M” value (shortened to “% inhibition … at 1 × 10^-7 M”) was determined as 90%.
On to `CSCC[C@H](NC(=O)c1ccc(CN(c2ccccc2)S(=O)(=O)c2ccc(C)cc2)cc1-c1ccccc1C)C(=O)O` [Example 770], for which the “% inhibition … at 1 × 10^-7 M” value is given as 91%.
As for `CSCC[C@H](NC(=O)c1ccc(S(=O)(=O)NCCC2CCCCC2)cc1-c1ccccc1C)C(=O)O` [Example 772, lithium salt], the inhibition at 1 µM worked out at 79%.
For the molecule `CSCC[C@H](NC(=O)c1ccc(S(=O)(=O)NC2CCN(Cc3ccccc3)CC2)cc1-c1ccccc1C)C(=O)O` [Example 773, lithium salt], the inhibition at 1 µM was 41%.
`CSCC[C@H](NC(=O)c1ccc(S(=O)(=O)NCCN2CCCCC2)cc1-c1ccccc1C)C(=O)O` [Example 774, lithium salt]: the inhibition at 1 µM came out at 48%.
As to `CSCC[C@H](NC(=O)c1ccc(S(=O)(=O)NCCN2CCOCC2)cc1-c1ccccc1C)C(=O)O` [Example 775, lithium salt], the inhibition at 1 µM came out at 32%.
In the case of `COc1ccc(CCNS(=O)(=O)c2ccc(C(=O)N[C@@H](CCSC)C(=O)O)c(-c3ccccc3C)c2)cc1OC` [Example 776], the inhibition at 1 µM is 36%.
On the same count and under the same terms, to `CSCC[C@H](NC(=O)c1ccc(S(=O)(=O)NCCCn2ccnc2)cc1-c1ccccc1C)C(=O)O` [Example 777, lithium salt] belongs 83%.
Take `COc1cccc(CN(Cc2ccc(C(=O)N[C@@H](CCSC)C(=O)O)c(-c3ccccc3C)c2)c2ccccc2)c1` [Example 779]: the “% inhibition … at 1 × 10^-8 M” value is reported as 70%.
Turning to `CSCC[C@H](NC(=O)c1ccc(CN(c2ccccc2)S(=O)(=O)c2ccc(C(F)(F)F)cc2)cc1-c1ccccc1C)C(=O)O` [Example 780], the “% inhibition … at 1 × 10^-8 M” value is listed as 71%.
On to `CSCC[C@H](NC(=O)c1ccc(CN(Cc2ccc(Cl)cc2)c2ccccc2)cc1-c1ccccc1C)C(=O)O` [Example 781], for which the “% inhibition … at 1 × 10^-7 M” value stood at 91%.
On to `CSCC[C@H](NC(=O)c1ccc(CN(Cc2ccc(C(F)(F)F)cc2)c2ccccc2)cc1-c1ccccc1C)C(=O)O` [Example 782], for which the “% inhibition … at 1 × 10^-6 M” value is on record as 96%.
Turning to `CSCC[C@H](NC(=O)c1ccc(C=Cc2cncs2)cc1-c1ccccc1C)C(=O)O` [Example 785, N-[4-(2-(thiazol-5-yl)ethen-1-yl)-2-(2-methylphenyl)benzoyl]methionine lithium salt], the inhibition at 0.1 µM came out at 96%.
For the molecule `CSCC[C@H](NC(=O)c1ccc(-c2ccccc2-c2ccccc2)cc1-c1ccccc1C)C(=O)O` [Example 786, N-[4-(2-phenylphenyl)-2-(2-methylphenyl)benzoyl]methionine lithium salt], the inhibition at 1 µM was determined as 34%.
For the molecule `CSCC[C@H](NC(=O)c1ccc(-c2cccc(-c3ccccc3)c2)cc1-c1ccccc1C)C(=O)O` [Example 787, N-[4-(3-phenylphenyl)-2-(2-methylphenyl)benzoyl]methionine lithium salt], the inhibition at 1 µM was found to be 70%.
Turning to `CSCC[C@H](NC(=O)c1ccc(-c2ccc(-c3ccccc3)cc2)cc1-c1ccccc1C)C(=O)O` [Example 788, N-[4-(4-phenylphenyl)-2-(2-methylphenyl)benzoyl]methionine lithium salt], the inhibition at 1 µM worked out at 44%.
`CSCC[C@H](NC(=O)c1ccc(C[C@H]2CC[C@@H](c3ccccc3)CC2)cc1-c1ccccc1C)C(=O)O` [Example 790, N-[4-syn-(4-phenylcyclohexylmethyl)-2-(2-methylphenyl)benzoyl]methionine lithium salt]: the inhibition at 1 µM was determined as 88%.
With `CSCC[C@H](NC(=O)c1ccc(/C=C/c2ccccc2)cc1-c1ccccc1C)C(=O)O` [Example 791, N-[4-(2-phenylethen-1-yl)-2-(2-methylphenyl)benzoyl]methionine], the inhibition at 1 µM was found to be 53%.
On to `CSCC[C@H](NC(=O)c1ccc(CCc2cccc(-c3ccccc3)c2)cc1-c1ccccc1C)C(=O)O` [Example 793, N-[4-(2-(3-phenylphenyl)ethyl)-2-(2-methylphenyl)benzoyl]methionine lithium salt], for which the inhibition at 1 µM amounted to 94%.
In the case of `CSCC[C@H](NC(=O)c1ccc(COc2ccc(Oc3ccccc3)cc2)cc1-c1ccccc1C)C(=O)[O-].[Li+]` [Example 795], the “% inhibition … at 1 × 10^-7 M” value is 87%.
Consider `CCOC(=O)N1CCC(NCc2ccc(C(=O)N[C@@H](CCSC)C(=O)[O-])c(-c3ccccc3C)c2)CC1.[Li+]` [Example 806], for which the “% inhibition … at 1 × 10^-6 M” value came out at 72%.
For the molecule `CSCC[C@H](NC(=O)c1ccc(COC2CCN(Cc3ccccc3)CC2)cc1-c1ccccc1C)C(=O)O` [Example 807], the “% inhibition … at 1 × 10^-6 M” value amounted to 90%.
On to `CSCC[C@H](NC(=O)c1ccc(COC2CCN(C(=O)OC(C)(C)C)CC2)cc1-c1ccccc1C)C(=O)[O-].[Li+]` [Example 808], for which the “% inhibition … at 1 × 10^-6 M” value is 88%.
`CSCC[C@H](NC(=O)c1ccc(COC2(Cc3ccccc3)CCN(C(=O)OC(C)(C)C)CC2)cc1-c1ccccc1C)C(=O)[O-].[Li+]` [Example 809]: the “% inhibition … at 1 × 10^-6 M” value is 78%.
`CSCC[C@H](NC(=O)c1ccc(/C=C/c2ccc(Oc3ccccc3)nn2)cc1-c1ccccc1C)C(=O)O` [Example 810, N-[4-(2-(3-phenoxypyridazin-6-yl)ethen-1-yl)-2-(2-methylphenyl)benzoyl]methionine lithium salt]: the inhibition at 1 µM was 89%.
Turning to `CSCC[C@H](NC(=O)c1ccc(CCc2ccc(Oc3ccccc3)nn2)cc1-c1ccccc1C)C(=O)O` [Example 811, N-[4-(2-(3-phenoxylyridazin-6-yl)ethyl)-2-(2-methylphenyl)benzoyl]methionine lithium salt], the inhibition at 0.1 µM is 85%.
As for `CSCC[C@H](NC(=O)c1ccc(/C=C/c2cnc(Oc3ccccc3)cn2)cc1-c1ccccc1C)C(=O)O` [Example 812, lithium salt], the inhibition at 1 µM came out at 94%.
With `CSCC[C@H](NC(=O)c1ccc(CCc2cnc(Oc3ccccc3)cn2)cc1-c1ccccc1C)C(=O)O` [Example 813, lithium salt], the inhibition at 1 µM is 95%.
With `CSCC[C@H](NC(=O)c1ccc(COC2(c3ccccc3)CCN(C(=O)OC(C)(C)C)CC2)cc1-c1ccccc1C)C(=O)[O-].[Li+]` [Example 816], the “% inhibition … at 1 × 10^-6 M” value turned out to be 87%.
Take `CSCC[C@H](NC(=O)c1ccc(COC2CCC(NC(=O)OC(C)(C)C)CC2)cc1-c1ccccc1C)C(=O)[O-].[Li+]` (stereo partly shown) [Example 817]: the “% inhibition … at 1 × 10^-7 M” value was 60%.
Consider `CSCC[C@H](NC(=O)c1ccc(COCc2ccc(-c3ccc(Cl)cc3)o2)cc1-c1ccccc1C)C(=O)NS(C)(=O)=O` [Example 818], for which the “% inhibition … at 1 × 10^-7 M” value was 78%.
For `CSCC[C@H](NC(=O)c1ccc(COCc2ccc(-c3ccc(Cl)cc3)o2)cc1-c1ccccc1C)C(=O)NS(=O)(=O)c1ccccc1` [Example 819], the “% inhibition … at 1 × 10^-8 M” value was found to be 76%.
With `CSCC[C@H](NC(=O)c1ccc(COCc2ccc(-c3ccc(C(C)C)cc3)o2)cc1-c1ccccc1C)C(=O)[O-].[Li+]` [Example 820], the “% inhibition … at 1 × 10^-8 M” value was determined as 66%.
On to `CSCC[C@H](NC(=O)c1ccc(COCc2ccc(-c3ccc(N(C)C)cc3)o2)cc1-c1ccccc1C)C(=O)O` [Example 821], for which the “% inhibition … at 1 × 10^-8 M” value stood at 75%.
Take `CSCC[C@H](NC(=O)c1ccc(COCC2CCC(c3ccc(Cl)cc3)O2)cc1-c1ccccc1C)C(=O)O` (stereo partly shown) [Example 822]: the “% inhibition … at 1 × 10^-7 M” value turned out to be 93%.
